# Test results taken from patent US8778939B2, “Compounds” (Glaxo Group Limited, priority 2009, dated 2014).
# Key:
# [1] = biological target: T1, 6His-Tev-LRRK2 (1326-2527) (Homo sapiens, UniProt Q5S007); assay: LRRK2 peptide substrate assay; type: biochemical; details: Biotin-LRRKtide peptide substrate, ATP at Km
# T1 construct: A LRRK2 cDNA encoding residues 1326-2527 was received from Dundee University; made in house; host or cells: Spodoptera frugiperda (Sf9) insect cells, baculovirus
# T1 sequence (Q5S007 1326-2527): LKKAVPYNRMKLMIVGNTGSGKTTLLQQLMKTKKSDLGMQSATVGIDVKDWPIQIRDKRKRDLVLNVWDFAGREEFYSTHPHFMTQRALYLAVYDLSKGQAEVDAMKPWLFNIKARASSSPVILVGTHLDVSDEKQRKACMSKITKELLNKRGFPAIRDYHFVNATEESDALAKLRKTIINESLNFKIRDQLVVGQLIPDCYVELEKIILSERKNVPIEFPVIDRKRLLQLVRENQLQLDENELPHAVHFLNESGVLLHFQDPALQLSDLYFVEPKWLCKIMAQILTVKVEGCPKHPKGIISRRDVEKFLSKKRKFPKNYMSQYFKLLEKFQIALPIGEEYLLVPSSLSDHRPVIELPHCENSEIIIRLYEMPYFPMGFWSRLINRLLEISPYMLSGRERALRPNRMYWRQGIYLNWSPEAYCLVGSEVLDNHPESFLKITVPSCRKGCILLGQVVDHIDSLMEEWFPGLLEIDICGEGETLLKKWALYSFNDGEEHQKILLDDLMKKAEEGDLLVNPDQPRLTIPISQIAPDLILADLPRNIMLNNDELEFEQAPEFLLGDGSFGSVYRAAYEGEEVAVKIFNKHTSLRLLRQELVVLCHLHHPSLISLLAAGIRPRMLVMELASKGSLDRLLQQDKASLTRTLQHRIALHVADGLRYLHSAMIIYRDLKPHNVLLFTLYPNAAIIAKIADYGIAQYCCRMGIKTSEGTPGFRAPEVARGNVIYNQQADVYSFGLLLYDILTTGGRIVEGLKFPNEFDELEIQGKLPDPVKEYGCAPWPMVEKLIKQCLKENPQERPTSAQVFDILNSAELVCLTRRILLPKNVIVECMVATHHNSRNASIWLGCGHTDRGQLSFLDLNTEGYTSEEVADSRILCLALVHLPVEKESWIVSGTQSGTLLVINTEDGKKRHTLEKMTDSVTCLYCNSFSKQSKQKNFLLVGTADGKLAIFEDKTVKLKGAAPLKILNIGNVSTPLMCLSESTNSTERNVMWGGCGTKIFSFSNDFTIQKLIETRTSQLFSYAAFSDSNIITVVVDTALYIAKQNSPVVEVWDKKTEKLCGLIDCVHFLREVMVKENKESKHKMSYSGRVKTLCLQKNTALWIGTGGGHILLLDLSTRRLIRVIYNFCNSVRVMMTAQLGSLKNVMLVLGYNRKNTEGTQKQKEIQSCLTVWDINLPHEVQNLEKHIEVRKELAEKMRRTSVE
# Experimental: Compounds of formula (I) may be tested for in vitro kinase activity in accordance with the following assays, using the non natural, in vitro, substrates moesin and the Longer Biotin-LRRKtide. Moesin and a shorter version of the peptide were identified as substrates in Jaleel et al, (2007, Biochem J, 405: 307-317).
# LRRK2 Peptide Substrate Assay
# (§1) a) 100 nl of a 1:4 serial dilution of test compound with a top final assay concentration of 30 μM is added to certain wells in a low volume 384 well black plate. 100 nl of DMSO is used in certain wells as controls.
# b) 3 μl enzyme solution (80 nM purified recombinant 6His-Tev-LRRK2 (1326-2527) in assay buffer: 50 mM Hepes (pH 7.2), 10 mM MgCl2, 150 mM NaCl, 5% glycerol, 0.0025% triton X-100 and 1 mM DTT) is added to certain wells. […] Plates are then incubated for a further 1-2 hours at room temperature (incubation time varies depending upon rate and linearity of reaction with differing enzyme batches). d) 6 μl detection solution (50 nM Streptavidin SureLight® APC (PerkinElmer), 4 nM Eu-W1024 labelled anti-rabbit IgG antibody (PerkinElmer), 1:500 dilution (dilution determined on a batch to batch basis) of Phospho-Ezrin (Thr567)/Radixin (Thr564)/Moesin (Thr558) Polyclonal Antibody (New England Biolabs) and 60 mM EDTA in buffer: 40 mM Hepes (pH 7.2), 150 mM NaCl, 0.03% BSA) is added to each well. Plates are then incubated for a further 2 hours at room temperature before reading on a suitable plate reader (Excitation 330 nm, emission 620 nm (Eu) and 665 nm (APC)). Data is analysed using ActivityBase software (IDBS). LRRK2 AlphaScreen Protein Substrate Assay
# [2] = biological target: T1, 6His-Tev-LRRK2 (1326-2527); assay: LRRK2 AlphaScreen desensitised protein substrate assay; type: biochemical
# Experimental: as §1
# b) 3 μl enzyme solution (80 nM purified recombinant 6His-Tev-LRRK2 (1326-2527) in assay buffer: 50 mM Hepes (pH 7.2), 10 mM MgCl2, 150 mM NaCl, 5% glycerol, 0.0025% triton X-100 and 1 mM DTT) is added to certain wells.
# Plates are then incubated for a further 1-2 hours at room temperature (incubation time varies depending upon rate and linearity of reaction with differing enzyme batches).
# d) 6 μl detection solution (1:250 dilution of AlphaLisa Protein A Acceptor beads (PerkinElmer), 1:64 dilution of AlphaLisa Gluthathione Donor beads (PerkinElmer) and 1:600 dilution (dilution determined on a batch to batch basis) of Phospho-Ezrin (Thr567)/Radixin (Thr564)/Moesin (Thr558) Polyclonal Antibody (New England Biolabs) in a buffer: 50 mM Hepes (pH 7.5), 250 mM NaCl, 60 mM EDTA, 1% PEG and 0.01% Brij 35) is added to each well. Plates are then incubated for a further 2 hours at room temperature in the dark before reading on an EnVision™ plate reader with AlphaScreen HTS turbo option module and AlphaScreen settings. Data is analysed using ActivityBase software (IDBS).
# LRRK2 AlphaScreen Desensitised Protein Substrate Assay
# This is conducted as described for the LRRK2 alphascreen protein substrate assay, with the following differences: • 1. The concentration of ATP in the substrate solution was 2 mM. • 2. The plates were incubated for 20 minutes at room temperature following addition of the substrate solution. Pharmacological Data
# [3] = read-out: pIC50 in the LRRK2 peptide substrate assay (converted)
# [4] = excess of ATP present (2 mM ATP), read-out: pIC50 in the LRRK2 alphascreen desensitised protein substrate assay (converted)
Structure (SMILES),"IC50 [1, 3]","IC50 [2, 4]","IC50 ([1]; mean pIC50, read-out: LRRK2 peptide substrate assay (pIC50) (converted))","IC50 ([2]; mean pIC50, GST-PS-Moesin (400-577) substrate, 2 mM ATP (excess of ATP present), read-out: LRRK2 alphascreen desensitised protein substrate assay (pIC50) (converted))"
"O=C(Nc1ccnnc1)c1cc(-c2ccncc2)ccc1OCc1ccc(F)cc1 [Example 89, 2-{[(4-Fluorophenyl)methyl]oxy}-N-4-pyridazinyl-5-(4-pyridinyl)benzamide]",≤ 10 nM,≤ 20000 nM,,
"O=C(Nc1cccnc1)c1cc(-c2ccncc2)ccc1OCc1ccc(F)cc1 [Example 90, 2-{[(4-Fluorophenyl)methyl]oxy}-N-3-pyridinyl-5-(4-pyridinyl)benzamide]",≤ 10 nM,≤ 20000 nM,,
"O=C(Nc1ccnnc1)c1cc(-c2cn[nH]c2)ccc1OCc1ccc(F)cc1 [Example 92, 2-{[(4-Fluorophenyl)methyl]oxy}-5-(1H-pyrazol-4-yl)-N-4-pyridazinylbenzamide]",≤ 10 nM,≤ 20000 nM,,
"Cn1cc(-c2ccc(OCc3ccc(F)cc3)c(C(=O)Nc3ccnnc3)c2)cn1 [Example 94, 2-{[(4-Fluorophenyl)methyl]oxy}-5-(1-methyl-1H-pyrazol-4-yl)-N-4-pyridazinylbenzamide]",≤ 100 nM,≤ 20000 nM,12.6 nM,100 nM
"Cn1nccc1-c1ccc(OCc2ccc(F)cc2)c(C(=O)Nc2cccnc2)c1 [Example 95, 2-{[(4-Fluorophenyl)methyl]oxy}-5-(1-methyl-1H-pyrazol-5-yl)-N-3-pyridinylbenzamide]",≤ 100 nM,≤ 20000 nM,,
"O=C(Nc1cncc(F)c1)c1cc(Br)ccc1OCc1ccccc1 [Example 98, 5-Bromo-N-(5-fluoro-3-pyridinyl)-2-[(phenylmethyl)oxy]benzamide]",≤ 100 nM,> 25100 nM,,
"O=C(Nc1cccnc1)c1cc(-c2cn[nH]c2)ccc1OCc1ccccc1 [Example 99, 2-[(Phenylmethyl)oxy]-5-(1H-pyrazol-4-yl)-N-3-pyridinylbenzamide]",≤ 10 nM,≤ 20000 nM,,
"O=C(Nc1cccnc1)c1cc(-c2cccnc2)ccc1OCc1ccccc1 [Example 101, 2-[(Phenylmethyl)oxy]-N,5-di-3-pyridinylbenzamide]",≤ 10 nM,≤ 20000 nM,,
"O=C(Nc1cncc(F)c1)c1cc(-c2ccncc2)ccc1OCc1ccccc1 [Example 102, N-(5-Fluoro-3-pyridinyl)-2-[(phenylmethyl)oxy]-5-(4-pyridinyl)benzamide]",≤ 100 nM,> 25100 nM,,
"C[C@@H]1CN(c2ccc(OCc3ccccc3)c(C(=O)Nc3cccnc3)c2)C[C@H](C)N1C [Example 103, 2-[(Phenylmethyl)oxy]-N-3-pyridinyl-5-[(3R,5S)-3,4,5-trimethyl-1-piperazinyl]benzamide]",≤ 10 nM,≤ 20000 nM,,
"O=C(Nc1cccnc1)c1cc(-c2ccnc(F)c2)ccc1OCc1ccccc1 [Example 104, 5-(2-Fluoro-4-pyridinyl)-2-[(phenylmethyl)oxy]-N-3-pyridinylbenzamide]",≤ 10 nM,≤ 20000 nM,,
"Cn1cc(-c2ccc(OCc3ccc(F)c(F)c3)c(C(=O)Nc3ccnnc3)c2)cn1 [Example 105, 2-{[(3,4-Difluorophenyl)methyl]oxy}-5-(1-methyl-1H-pyrazol-4-yl)-N-4-pyridazinylbenzamide]",≤ 100 nM,≤ 20000 nM,,
"O=C(Nc1ccnnc1)c1cc(-c2ccncc2)ccc1OCc1ccc(F)c(F)c1 [Example 106, 2-([(3,4-Difluorophenyl)methyl]oxy)-N-4-pyridazinyl-5-(4-pyridinyl)benzamide]",≤ 100 nM,≤ 20000 nM,,
"O=C(Nc1cccnc1)c1cc(-c2ccn[nH]2)ccc1OCc1ccc(F)c(F)c1 [Example 107, 2-{[(3,4-Difluorophenyl)methyl]oxy}-5-(1H-pyrazol-5-yl)-N-3-pyridinylbenzamide]",≤ 10 nM,≤ 20000 nM,,
"O=C(Nc1ccnnc1)c1cc(-c2cn[nH]c2)ccc1OCc1ccc(F)c(F)c1 [Example 108, 2-{[(3,4-Difluorophenyl)methyl]oxy}-5-(1H-pyrazol-4-yl)-N-4-pyridazinylbenzamide]",≤ 100 nM,≤ 20000 nM,,
"O=C(Nc1cccnc1)c1cc(-c2ccncc2)ccc1OCc1ccc(F)c(F)c1 [Example 109, 2-{[(3,4-Difluorophenyl)methyl]oxy}-N-3-pyridinyl-5-(4-pyridinyl)benzamide]",≤ 100 nM,≤ 20000 nM,,
"Cn1cc(-c2ccc(OCc3ccc(F)c(F)c3)c(C(=O)Nc3cccnc3)c2)cn1 [Example 110, 2-{[(3,4-Difluorophenyl)methyl]oxy)-5-(1-methyl-1H-pyrazol-4-yl)-N-3-pyridinylbenzamide]",≤ 100 nM,≤ 20000 nM,,
"O=C(Nc1cccnc1)c1cc(CN2CCOCC2)ccc1OCc1ccc(F)c(F)c1 [Example 112, 2-{[(3,4-Difluorophenyl)methyl]oxy}-5-(4-morpholinylmethyl)-N-3-pyridinylbenzamide]",≤ 100 nM,≤ 20000 nM,,
"Cn1cc(-c2ccc(OCc3ccccc3C#N)c(C(=O)Nc3cccnc3)c2)cn1 [Example 113, 2-{[(2-Cyanophenyl)methyl]oxy}-5-(1-methyl-1H-pyrazol-4-yl)-N-3-pyridinylbenzamide]",≤ 100 nM,≤ 20000 nM,,
"COc1cccc(COc2ccc(-c3cnn(C)c3)cc2C(=O)Nc2cccnc2)c1 [Example 115, 2-({[3-(Methyloxy)phenyl]methyl}oxy)-5-(1-methyl-1H-pyrazol-4-yl)-N-3-pyridinylbenzamide]",≤ 100 nM,≤ 20000 nM,,
"Cn1cc(-c2ccc(OCc3ccc(F)cc3F)c(C(=O)Nc3cccnc3)c2)cn1 [Example 116, 2-{[(2,4-Difluorophenyl)methyl]oxy}-5-(1-methyl-1H-pyrazol-4-yl)-N-3-pyridinylbenzamide]",≤ 10 nM,≤ 20000 nM,,
